{"source": "EPA's ToxValDB 9.5 (doi:10.2903/j.efsa.2006.56r)", "key": {"Oryctolagus sp.": {"tested_on": "Oryctolagus sp.", "settings": "developmental; development"}, "Apis mellifera": {"tested_on": "Apis mellifera", "settings": "acute; for LD50: mortality"}, "Plant": {"tested_on": "Plant", "settings": "acute"}, "Pontoscolex corethrurus": {"tested_on": "Pontoscolex corethrurus", "settings": "for LC50: acute, mortality"}, "Rattus norvegicus": {"tested_on": "Rattus norvegicus", "settings": "for LD50: acute, mortality"}, "Colinus virginianus": {"tested_on": "Colinus virginianus", "settings": "for LC50: diet"}, "Anatidae": {"tested_on": "Anatidae", "settings": "reproductive"}, "Anas platyrhynchos": {"tested_on": "Anas platyrhynchos", "settings": "acute; oral; unspecified; mortality"}, "Tagia sp.": {"tested_on": "Tagia sp.", "settings": "chronic/long-term"}, "[1]": {"settings": "chronic, duration: 2 years, oral, diet, M, organ weight"}}, "note": "“And” between values parts separate entries of the source, which are not always exact repeats. Equal entries are not always repeated.", "data": [{"smiles": "CCCCOCCOC(=O)COc1nc(Cl)c(Cl)cc1Cl", "note": "[Triclopyr butotyl]", "values": [{"measurement": "NOAEL", "setting": "Oryctolagus sp.", "value": 30, "unit": "mg/kg-day"}, {"measurement": "LEC", "setting": "Apis mellifera; dermal", "value": "> 100", "unit": "µg/piece"}, {"measurement": "LD50", "setting": "Apis mellifera; oral, unspecified", "value": "> 100", "unit": "µg/piece"}, {"measurement": "LEC", "setting": "Plant", "value": 2200, "unit": "µg/L"}, {"measurement": "LC50", "setting": "Pontoscolex corethrurus", "value": "> 521", "unit": "mg/kg"}, {"measurement": "NOEC", "setting": "Pontoscolex corethrurus; chronic/long-term", "value": 9.6, "unit": "mg/kg"}, {"measurement": "LD50", "setting": "Rattus norvegicus; oral", "value": 803, "unit": "mg/kg"}, {"measurement": "NOAEL", "setting": "Rattus norvegicus; chronic", "value": 5, "unit": "mg/kg-day"}, {"measurement": "NOAEL", "setting": "Rattus norvegicus; [1]", "value": 3, "unit": "mg/kg-day"}, {"measurement": "LC50", "setting": "Colinus virginianus; acute, oral, mortality", "value": 1890, "unit": "mg/kg-day"}, {"measurement": "LD50", "setting": "Colinus virginianus; acute, oral, mortality", "value": 735, "unit": "mg/kg"}]}, {"smiles": "O=C(O)COc1nc(Cl)c(Cl)cc1Cl", "note": "[Triclopyr]", "values": [{"measurement": "NOAEL", "setting": "Oryctolagus sp.", "value": 30, "unit": "mg/kg-day"}, {"measurement": "LD50", "setting": "Apis mellifera; dermal", "value": "> 100", "unit": "µg/piece"}, {"measurement": "LD50", "setting": "Apis mellifera; oral, unspecified", "value": "> 100", "unit": "µg/piece"}, {"measurement": "NOEC", "setting": "Anatidae", "value": 30, "unit": "mg/kg-day"}, {"measurement": "LEC", "setting": "acute", "value": "117 mg/L and > 131 mg/L and 75.8 mg/L"}, {"measurement": "LEC", "setting": "chronic", "value": "46.3 mg/L and 48.5 mg/L"}, {"measurement": "LD50", "setting": "Anas platyrhynchos", "value": 1700, "unit": "mg/kg"}, {"measurement": "NOEC", "setting": "Tagia sp.", "value": 9.6, "unit": "mg/kg"}, {"measurement": "LC50", "setting": "Pontoscolex corethrurus", "value": "> 983", "unit": "mg/kg"}, {"measurement": "LD50", "setting": "Rattus norvegicus; oral", "value": 630, "unit": "mg/kg"}, {"measurement": "NOAEL", "setting": "Rattus norvegicus; [1]", "value": 3, "unit": "mg/kg-day"}, {"measurement": "NOAEL", "setting": "Rattus norvegicus; reproduction developmental, reproduction", "value": 25, "unit": "mg/kg-day"}, {"measurement": "NOAEL", "setting": "Rattus norvegicus; subchronic, duration: 13 weeks, oral, diet, M/F, histopathology: nonneoplastic", "value": 5, "unit": "mg/kg-day"}, {"measurement": "LC50", "setting": "Colinus virginianus; acute, oral, mortality", "value": 1030, "unit": "mg/kg-day"}, {"measurement": "NOEC", "setting": "Colinus virginianus; reproduction developmental", "value": 500, "unit": "mg/kg-day"}]}]}
